Consider 2 compounds from EP0127529A2, “Aminocyclic N-oxide derivatives, process for their preparation and their therapeutical use” (DELALANDE S.A., priority 1983, dated 1984).

The test system of one data set is souris. Put plainly: Acute toxicity in mice, intraperitoneal route. The data set is classed as in vivo. As to conditions: i.p. The source says:
La toxicité aiguë des composés selon l'invention a également été étudiée chez la souris par voie intrapéritonéale. Le tableau II ci-après donne à titre d'exemple non limitatif les résultats obtenus avec certains des composés selon l'invention.

The subject of data set [1] is redressements à l'apomorphine. Put plainly: Antagonism of apomorphine-induced rearing (climbing) in mice. It counts as in vivo. Conditions: souris, i.p. An excerpt:
Ces propriétés psychotropes ont été mises en évidence chez la souris, notamment par le test de l'antagonisme aux redressements à l'apomorphine réalisé d'après le protocole décrit par G. GOURET et Coll. dans J. Pharmacol. (Paris) (^1973), ^4, 341.

The structures appear in SMILES notation.

Take `COc1cccc(C(=O)NC2CC3CCC(C2)[N+]3([O-])Cc2ccccc2)c1OC` (stereo not shown) [compound 2, N-oxyde équatorial du (diméthoxy-2,3) benzoylamino-3 N-benzyl aza-8 bicyclo[3.2.1] octane]: the “Toxicité (souris) DL 50” value with souris is 400 mg/kg/i.p. The “Antagonisme aux redressements à l'apomorphine DE 50” value in data set [1] is on record as 0,27 mg/kg/i.p.
Take `COc1cccc(C(=O)NC2CC3CCC(C2)[N+]3([O-])Cc2ccccc2)c1OC` (stereo not shown) [compound 1, N-oxyde axial du (diméthoxy-2,3) benzoylamino-3 N-benzyl aza-8 bicyclo [3.2,1] octane]: in the data set with souris, the “Toxicité (souris) DL 50” value is on record as > 400 mg/kg/i.p. Also, in data set [1], the “Antagonisme aux redressements à l'apomorphine DE 50” value was 2,2 mg/kg/i.p.
